Test [1] deals with acetolactate synthase (ALS), Isolate 10 (S4/+) extract. As to the kind of experiment: ALS activity assay in cell extracts. Type of test: biochemical, Nicotiana tabacum. How it is done: (§1) Cell suspension cultures of normal (H1) and homozygous mutant (Isolate 16) cell lines were washed in C1 liquid medium. After washing, cells were extracted in a 100 mM potassium phosphate buffer (pH 7.5) containing 0.5 mM MgCl2, 1 mM sodium pyruvate, 0.5 mM thiamine pyrophosphate, 10 micromolar flavine-adenine dinucleotide (FAD) and 10 percent (by volume) glycerol. Polyclar AT (BDH Chemicals Ltd) was added to a final concentration of 250 mg per gram fresh weight of tissue. After centrifugation at 27,000xg for 15 minutes at 4°, an equal volume of a saturated solution of amminium sulfate was added to the supernatant fraction. The resultant precipitate (representing a 0 to 50 percent ammonium sulfate fraction) was redissolved in 100 mM potassium phosphate buffer (pH 7.5) containing 0.5 mM MgCl2, 1 mM sodium pyruvate, and salts were removed by passage through a Sephadex G-25 (Pharmacia PD-10) column.
(§2) ALS activity was assayed in a total volume of 500 microliters containing 100 microliters of the column eluate, 65 mM potassium phosphate buffer (pH 7.5) containing 10 mM MgCl2, 40 mM sodium pyruvate, 250 micromolar thiamine pyrophosphate, 23 micromolar FAD, […] After incubation at 30° for 90 minutes, 250 microliters of 6N H2 SO4 was added to each assay tube, and the tubes were incubated at 55° for 10 minutes to terminate the enzymatic reaction and achieve complete conversion of acetolactate to acetoin. Acetoin content was then measured by a modification of the procedure described by Westerfield, J. Biol. Chem. 161:495 (1945). To each tube was added sequentially 100 microliters 50 percent NaOH, 150 microliters 0.5 percent creatine, and 150 microliters 5 percent alpha-napthol (in 2.5N NaOH). Color development was accelerated by incubation at 55° for 10 minutes. Tubes were then centrifuged, and the optical density was read at 530 nm. Background optical densities, which were subtracted from the optical density values of the reactions, were determined for each extract from parallel assays to which the enzyme extract was added after the addition of 6N H2 SO4. Protein concentrations were measured with Bio-Rad Protein Assay reagent with bovine serum albumin as a standard. Data points and specific activities, which are set forth below and in FIG. 2, represent the average values of at least three independent determinations. ALS activities are presented in FIG. 2 as percent activity in the absence of herbicide.
(§3) Responses to chlorsulfuron were determined for ALS activities in extracts of cells suspension cultures derived from nine individuals that differed with resepct to the S4 mutation. As described above, these individuals were produced by self-fertilization of an S4/+ heterozygote, and their genotypes were established by means of progeny analysis. Callus and plant phenotypes were determined by growth responses of cell cultures and seedlings, respectively, on herbicide-supplemented medium. […] In contrast, all individuals homozygous for the S4 mutation contained a highly resistant form of the enzyme. […] The correlation between both callus and plant phenotype and the response of ALS activity in vitro to the herbicide is both absolute and quantitative.

Test [2] has as its system acetolactate synthase (ALS), Isolate 23 (S4/+) extract. In words: ALS activity assay in cell extracts. Format: biochemical, Nicotiana tabacum. How it is done:
as §1, §2, §3

For the next test, the system named is H1 callus culture. As to the kind of experiment: Callus growth on chlorsulfuron-supplemented medium. Also: key: Callus cultures capable of growth on this medium are designated R (resistant); S denotes sensitive callus cultures that did not grow in the presence of the herbicide. Type of test: cell-based, Nicotiana tabacum. The settings on record: chlorsulfuron at 5 ppb (14 nM). How it is done: (§4) Table 7, below, indicates sensitivity to chlorsulfuron of ALS activities in progeny of an S4/+ heterozygote. Data are presented as percent of ALS activity in the absence of chlorsulfuron. Each number represents the average of at least three independent experiments. Callus cultures initiated from the individual isolates were tested for growth on medium supplemented with chlorsulfuron at 5 ppb (14 nM).

The subject of test [3] is Isolate 1 (+/+) callus culture. In words: Callus growth on chlorsulfuron-supplemented medium. Also: key: Callus cultures capable of growth on this medium are designated R (resistant); S denotes sensitive callus cultures that did not grow in the presence of the herbicide. Type of test: cell-based, Nicotiana tabacum. The settings on record: chlorsulfuron at 5 ppb (14 nM). As for the experimental part:
as §4

The test system of test [4] is Isolate 10 (S4/+) callus culture. In words: Callus growth on chlorsulfuron-supplemented medium. Also: key: Callus cultures capable of growth on this medium are designated R (resistant); S denotes sensitive callus cultures that did not grow in the presence of the herbicide. Format: cell-based, Nicotiana tabacum. The settings on record: chlorsulfuron at 5 ppb (14 nM). As for the experimental part:
as §4

The subject of test [5] is Isolate 16 (S4/S4) callus culture. In words: Callus growth on chlorsulfuron-supplemented medium. Also: key: Callus cultures capable of growth on this medium are designated R (resistant); S denotes sensitive callus cultures that did not grow in the presence of the herbicide. Type of test: cell-based, Nicotiana tabacum. The settings on record: chlorsulfuron at 5 ppb (14 nM). How it is done: as §4
Test [6] deals with Isolate 23 (S4/+) callus culture. As to the kind of experiment: Callus growth on chlorsulfuron-supplemented medium. Type of test: cell-based, Nicotiana tabacum. The settings on record: chlorsulfuron at 5 ppb (14 nM). As for the experimental part:
as §4

The test system of test [7] is Isolate 24 (S4/+) callus culture. In words: Callus growth on chlorsulfuron-supplemented medium. Type of test: cell-based, Nicotiana tabacum. To be noted: chlorsulfuron at 5 ppb (14 nM). As for the experimental part:
as §4

Test [8] relates to Isolate 27 (S4/S4) callus culture. In words: Callus growth on chlorsulfuron-supplemented medium. Format: cell-based, Nicotiana tabacum. To be noted: chlorsulfuron at 5 ppb (14 nM). As for the experimental part:
as §4

The subject of test [9] is Isolate 30 (S4/S4) callus culture. As to the kind of experiment: Callus growth on chlorsulfuron-supplemented medium. Type of test: cell-based, Nicotiana tabacum. To be noted: chlorsulfuron at 5 ppb (14 nM). How it is done: as §4
Test [10] deals with Isolate 7 (+/+) callus culture. As to the kind of experiment: Callus growth on chlorsulfuron-supplemented medium. Format: cell-based, Nicotiana tabacum. The settings on record: chlorsulfuron at 5 ppb (14 nM). As for the experimental part: as §4
Test [11] relates to Isolate 9 (S4/+) callus culture. As to the kind of experiment: Callus growth on chlorsulfuron-supplemented medium. Type of test: cell-based, Nicotiana tabacum. To be noted: chlorsulfuron at 5 ppb (14 nM). As for the experimental part: as §4

This is an account of results in US4774381A, “Herbicide resistant tobacco” (E. I. Du Pont de Nemours and Company, priority 1985, dated 1988).

As for `COc1nc(C)nc(NC(=O)NS(=O)(=O)c2ccccc2Cl)n1` [Chlorsulfuron, chlorsulfuron], the “Uninhibited activity (%) in the Presence of Chlorsulfuron” value in test [1] (10 ppb) was 61%; in test [1] (30 ppb), 52%; in test [1] (100 ppb), 45%; in test [2] (10 ppb), 64%; in [2] (30 ppb), 53%; in [2] (100 ppb) it was 46%. Further, the “Callus Phenotype” value is listed as “S” in the test on H1 callus culture; “S” in test [3]; “R” in test [4]; “R” in test [5]; “R” in test [6]; “R” in test [7]. The “Callus Phenotype” value in [8] is on record as “R”; in test [9] it was “R”; in test [10] it was “S”; in [11] it was “R”.
